This is an account of results in patent US12474327B2, “Metabolic profiling for the diagnosis of a subset of idiopathic autism spectrum disorder patients, ADS Phenotype 1” (STALICLA SA, priority 2018, dated 2025).

Data set [1] deals with control lymphoblastoid cell lines (LCLs). The data set can be described thus: Energy production capacity (NADH, tetrazolium colorimetric assay, Biolog Phenotype Mammalian MicroArrays). The format is cell-based, human. Particulars: for energy production capacity: in presence of D-Glucose. Here is the method: (§1) The data reported in the present patent were generated from lymphoblastoid cell lines (LCLs) generated from lymphocytes from peripheral blood. Tubes containing anticoagulant citrate dextrose (ACD) were used to collect blood samples via venipuncture, in order to ensure that the blood cells remained metabolically active. The tubes were kept at room temperature and processed within 24 hours.
(§2) Cell lines were obtained by immortalization of lymphocytes from blood samples using Epstein-Barr virus. The lymphoblastoid cell lines were harvested in Sigma RPMI-1640 with 75 mL fetal bovine serum from Atlanta Biological (Lawrenceville, GA, USA) and 5 mL L-Glutamine and 5 mL antibiotic/antimycotic from Sigma-Aldrich (St. Louis, MO, USA).
(§3) Energy production of cells was measured using commercially available Phenotype Mammalian MicroArrays (PM-Ms, Biolog, Hayward, CA, USA).
(§4) The compound in each well was designed to be used by the cells, either as the sole energy source or as the metabolic effector influencing the utilization of an energy source (D-glucose) added in the cell suspension. The production of NADH per well was monitored using a colorimetric redox dye chemistry (Bochner et al. Assay of the multiple energy-producing pathways of mammalian cells. PLoS One 2011, 6(3):e18147). Before plating, cell viability and number were assessed utilizing a BioRad cell counter and a trypan blue dye.
(§5) The concentration of live cells required for plating was 4×10^5 cells/mL, corresponding to 20,000 cells per well in a volume of 50 μL. Only cell lines with viability of 55% or above were utilized for the experiments and, in order to minimize artifacts and biases due to prolonged cell culturing of transformed cells, LCLs were not been utilized if they had reached 15 passages. Cells were incubated for 48 h at 37° C. in 5% CO2, using the modified Biolog IF-M1 medium.
(§6) The Biolog IF-M1 medium was modified for plates PM-M1 by adding the following to 100 mL of Biolog IF-M1: 1.1 mL of 100× penicillin/streptomycin solution, 0.16 mL of 200 mM glutamine (final concentration 0.3 mM), and 5.3 mL of Fetal Bovine Serum (FBS, final concentration 5%). For plates PM-M6, 5.5 mM α-D-glucose was added instead of FBS.
(§7) After this first incubation, Biolog Redox Dye Mix MB was added (10 μL/well) and the plates were incubated under the same conditions for an additional 24 hours. As the cells metabolized the energy source, tetrazolium dye in the media was reduced, producing a purple color according to the amount of NADH generated.
(§8) For the last 24 hours of the experiment, plates were incubated in the Omnilog system, which collects optical density readings every 15 minutes, generating 96 data-points for each well. The system also elaborated the kinetic curve for the metabolic reaction in each well and extrapolated parameters such as slope, highest point, endpoint, area under the curve (AUC), and lag. The system performed parametric analysis by comparing kinetic curves of cases versus controls, both as individual sample or as cohorts.
(§9) At the end of the 24-hour incubation, plates were analyzed utilizing a microplate reader with readings at 590 and 750 nm. The first value (A590) indicated the highest absorbance peak of the redox dye and the second value (A750) gave a measure of the background noise. The relative absorbance (A590-750) was calculated per well.
(§10) Metabolic profiles of the same cell lines were then assessed after stimulation of the Nrf2 signaling pathway aiming to reproduce in control and Non-Ph1 cells the activation of the hub that occurs constitutively in ASD Ph1. In order to achieve the stimulation of the Nrf2 pathway, the cells were exposed to sulforaphane.

Data set [2] relates to ASD Phenotype 1 lymphoblastoid cell lines (LCLs). Described as above. In kind it is cell-based, human. Here is the method: as §1, §2, §3, §4, §5, §6, §7, §8, §9, §10
Data set [3] relates to ASD non-Phenotype 1 lymphoblastoid cell lines (LCLs). Described as above. Particulars: for energy production capacity: ASD non-Phenotype 1 LCLs, in presence of D-Glucose. The format is cell-based, human. Here is the method:
as §1, §2, §3, §4, §5, §6, §7, §8, §9, §10

For data set [4] the following is noted: Singh K et al., PNAS 2014; cited from earlier work.
The subject of data set [5] is core symptoms of ASD. Particulars: ASD patients treated in Singh et al.; cited from earlier work.
Data set [6] deals with ASD Phenotype 1 patients. The conditions noted are these: short oral treatment, described in EP 17200185.1; cited from earlier work.

For the compound `CCCC(=O)Nc1ncnc2c1ncn2[C@@H]1O[C@@H]2COP(=O)(O)O[C@H]2[C@H]1OC(=O)CCC` [dibutyryl cAMP, dibutyril-cyclic adenosine monophosphate], the energy production capacity entry in data set [1] (control LCLs) is “no effect”; in data set [2] (Phenotype 1 cells, in the presence of D-Glucose, increasing concentrations) it was “increased”; in data set [3], “no effect”. Moreover, the “energy production capacity after pretreatment with sulforaphane (Nrf2 activation)” value is listed as “restituted” in data set [1] (control LCLs, in presence of glucose, addition of dibutyryl cAMP) and “restituted” in data set [3] (ASD non-Ph1 LCLs, in presence of glucose).
With `C[S@@+]([O-])CCCCN=C=S` [sulforaphane, 1-isothiocyanato-4R-(methylsulfinyl)butane], in data set [4], the “tolerability of administration to humans” value is reported as “well tolerated”. The toxicity result in data set [4] is listed as “low toxicity”. For the same compound, the energy production capacity result in data set [1] (control LCLs) and in data set [3] was “produced a decrease” in each case. Moreover, the “metabolic profile (PCA of energy production capacity)” value in data set [1] (control cells exposed to sulforaphane, various carbon sources of energy) was “comparable to Ph1 cells at baseline”; in data set [3] (ASD non-Phenotype 1 cells exposed to sulforaphane, various carbon sources of energy), “comparable to Ph1 cells at baseline”. Besides, the “effect on the dibutyryl cAMP-induced increase of energy production capacity” value in data set [2] (ASD Ph1 cells, D-Glucose, treated with sulforaphane) was “did not modify the response to dibutyryl cAMP”. Further, the “effect on energy production capacity” value in data set [2] (ASD Phenotype 1 cell lines, various carbon sources of energy (FIG. 1, FIG. 2: D-Glucose, maltose), exposed to sulforaphane) is “lack of effect”. Besides, the “core symptoms of ASD (as measured by the ADOS 2)” value in data set [5] is “significant improvements”. Besides, the “behavioral response (ADI-r SI, ADI-r C or ADI-r RI)” value in data set [6] is given as “negative behavioral response”.
